# Test results taken from patent publication US10357481B2 (MERCK SHARP & DOHME CORP., priority 2015, dated 2019).
# Biological target: T1, human PDE2A1 (Homo sapiens, UniProt O00408)
# T1 construct: GST; purchased BPS Bioscience (San Diego, Calif.) 60020; host or cells: insect cells
# Experiment: IMAP FP PDE selectivity panel, human PDE2A1
# Type: biochemical
# Settings: Lab B; read-out: Human PDE2 Ki (nM) Lab B
# Procedure, shortened: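 Human PDE2A1 tested alongside PDE1–11 by IMAP fluorescence polarization at room temperature. Substrate was 50 nM FAM-cAMP plus 1000 nM cGMP, buffer pH 7.2 with MgCl2 and DTT, enzyme set for 20% conversion. Ten 3-fold compound dilutions; 60 min reaction, then IMAP binding solution, 1 h, parallel/perpendicular fluorescence read.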
# T1 sequence (O00408 1-920 isoform O00408-2): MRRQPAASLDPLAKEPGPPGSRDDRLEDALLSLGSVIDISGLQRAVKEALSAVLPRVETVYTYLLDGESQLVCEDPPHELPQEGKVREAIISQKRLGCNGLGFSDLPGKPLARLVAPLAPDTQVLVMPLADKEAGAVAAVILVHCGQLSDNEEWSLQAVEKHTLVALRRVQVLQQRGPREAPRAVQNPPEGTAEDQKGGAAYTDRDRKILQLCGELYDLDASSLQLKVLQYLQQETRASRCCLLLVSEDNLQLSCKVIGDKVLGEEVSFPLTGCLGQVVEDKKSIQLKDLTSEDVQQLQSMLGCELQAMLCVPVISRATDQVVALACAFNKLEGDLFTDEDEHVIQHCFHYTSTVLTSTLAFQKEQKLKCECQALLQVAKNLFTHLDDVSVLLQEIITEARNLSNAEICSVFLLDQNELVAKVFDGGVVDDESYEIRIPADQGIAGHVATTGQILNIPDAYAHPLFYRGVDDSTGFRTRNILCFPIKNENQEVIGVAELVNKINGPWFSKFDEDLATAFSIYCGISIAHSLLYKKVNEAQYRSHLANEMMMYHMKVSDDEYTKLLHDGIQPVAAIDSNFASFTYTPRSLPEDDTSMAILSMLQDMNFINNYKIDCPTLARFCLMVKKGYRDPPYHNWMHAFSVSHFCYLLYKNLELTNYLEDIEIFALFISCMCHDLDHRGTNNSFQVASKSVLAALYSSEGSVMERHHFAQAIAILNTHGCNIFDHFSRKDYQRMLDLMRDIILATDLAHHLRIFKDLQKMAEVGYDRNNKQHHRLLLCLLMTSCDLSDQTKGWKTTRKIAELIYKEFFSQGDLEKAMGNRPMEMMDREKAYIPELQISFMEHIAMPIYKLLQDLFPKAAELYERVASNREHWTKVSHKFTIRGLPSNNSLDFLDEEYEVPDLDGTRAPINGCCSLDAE
row,Ki,Compound
1,33 nM,"Cc1cc(NC2(c3ccc(SC(F)(F)F)c(F)c3)CC2)n2ncnc2n1 [Example 63, N-(1-{3-Fluoro-4-[(trifluoromethyl)sulfanyl]phenyl}cyclopropyl)-5-methyl[1,2,4]triazolo[1,5-a] pyrimidin-7-amine]"
2,83 nM,"Cc1cc(NC2(c3ccc(C(F)(F)F)c(F)c3)COC2)n2ncnc2n1 [Example 198, N-(3-(3-Fluoro-4-(trifluoromethyl)phenyl)oxetan-3-yl)-5-methyl-[1,2,4]triazolo [1,5-a]pyrimidin-7-amine]"
3,> 2960 nM,"Cc1cc(NC(c2ccc(OC(F)(F)F)c(F)c2)C(C)(C)CO)n2ncnc2n1 (single isomer, unassigned) [Example 232, (S or S)-3-(3-fluoro-4-(trifluoromethoxy)phenyl)-2,2-dimethyl-3-(5-methyl-[1,2,4]triazolo[1,5-a]pyrimidin-7-ylamino)propan-1-ol]"
4,49 nM,"Cc1cc(N[C@@H](c2ccc(C(F)(F)F)c(F)c2)C2CC2)n2ncnc2n1 [Example 39, N-{(R)-Cyclopropyl[3-fluoro-4-(trifluoromethyl)phenyl]methyl}-5-methyl[1,2,4]triazolo[1,5-a] pyrimidin-7-amine]"
5,22 nM,"Fc1cc(C2(Nc3cncc4ncnn34)CC2)ccc1C(F)(F)F [Example 285, N-{1-[3-Fluoro-4-(trifluoromethyl)phenyl]cyclopropyl}[1,2,4]triazolo [1,5-a]pyrazin-5-amine]"
6,> 2960 nM,"Cc1cc(O[C@H](c2ccc(C(F)(F)F)cc2)C(C)(C)C)n2ncnc2n1 (single isomer, unassigned) [Example 261]"
7,14 nM,"Cc1cc(N[C@@H](c2ccc(SC(F)(F)F)cc2)C2CC2)n2ncnc2n1 [Example 40, N-[(R)-Cyclopropyl{4-[(trifluoromethyl)sulfanyl]phenyl}methyl]-5-methyl[1,2,4]triazolo[1,5-a] pyrimidin-7-amine]"
8,38 nM,"Cc1cc(NC(c2ccc(C(F)(F)F)cc2Cl)C(C)(C)O)n2ncnc2n1 (single isomer, unassigned) [Example 105, (1R or S)-1-[2-Chloro-4-(trifluoromethyl)phenyl]-2-methyl-1-[(5-methyl[1,2,4]triazolo[1,5-a]pyrimidin-7-yl)amino]propan-2-ol]"
9,221 nM,C[C@@H](Nc1cncc2ncnn12)c1ccc(C(F)(F)F)cc1 [Example 288]
10,36 nM,"Cc1cc(N[C@@H](c2ccc(C(F)(F)F)cc2)C(C)C)n2ncnc2n1 [Example 19, 5-Methyl-N-{(1R)-2-methyl-1-[4-(trifluoromethyl)phenyl]propyl} [1,2,4]triazolo[1,5-a]pyrimidin-7-amine]"
11,678 nM,"CC(C)(O)[C@@H](Nc1cc(C(F)(F)F)cc2nc(N)nn12)c1ccc(C(F)(F)F)cc1 [Example 294, (S)-1-((2-Amino-7-(trifluoromethyl)-[1,2,4]triazolo[1,5-a]pyridin-5-yl)amino)-2-methyl-1-(4-(trifluoromethyl)phenyl)propan-2-ol]"
12,> 2960 nM,"CC(C)(C)c1cc(NC(c2ccc(OC(F)(F)F)c(F)c2)C(C)(C)O)n2ncnc2n1 (single isomer, unassigned) [Example 147, (1R or S)-1-[(5-tert-Butyl[1,2,4]triazolo[1,5-a]pyrimidin-7-yl)amino]-1-[3-fluoro-4-(trifluoro-methoxy)phenyl]-2-methylpropan-2-ol]"
13,83 nM,"CC(C)(N)C(Nc1cc(C(F)(F)F)nc2ncnn12)c1ccc(C(F)(F)F)c(F)c1 (single isomer, unassigned) [Example 253, (R)- or (S)-1-(3-Fluoro-4-(trifluoromethyl)phenyl)-2-methyl-N^1-(5-(trifluoromethyl)-[1,2,4]triazolo [1,5-a]pyrimidin-7-yl) propane-1,2-diamine]"
14,636 nM,"CC(C)c1cc(NC(c2ccc(C(F)(F)F)cc2)C(C)(C)O)n2ncnc2n1 (stereo in doubt) [Example 156, (1S)-2-Methyl-1-{[5-(1-methylethyl)[1,2,4]triazolo[1,5-a]pyrimidin-7-yl]amino}-1-[4-(trifluoromethyl)phenyl]propan-2-ol]"
15,367 nM,"Cc1cc(NC2(c3ccc(C(F)(F)F)cc3)CCCC2)n2ncnc2n1 [Example 67, 5-Methyl-N-{1-[4-(trifluoromethyl)phenyl]cyclopentyl}[1,2,4]triazolo [1,5-a]pyrimidin-7-amine]"
16,108 nM,"Cc1cc(N[C@H](C)c2ccc(CC(F)(F)F)cc2)n2ncnc2n1 [Example 4, 5-Methyl-N-{(1R)-1-[4-(2,2,2-trifluoroethyl)phenyl]ethyl}[1,2,4] triazolo[1,5-a]pyrimidin-7-amine]"

row,Ki,Compound
1,258 nM,"Cc1cc(NC(c2ccc(C(F)(F)F)nc2)C(C)(C)O)n2ncnc2n1 (single isomer, unassigned) [Example 225, (R)- or (S)-2-Methyl-1-(5-methyl-[1,2,4]triazolo [1,5-a]pyrimidin-7-ylamino)-1-(6-(trifluoromethyl)pyridin-3-yl) propan-2-ol]"
2,41 nM,"CC(C)(O)[C@@H](Nc1cc(C(F)F)cc2ncnn12)c1ccc(OC(F)(F)F)c(F)c1 [Example 279, (S)-1-((7-(Difluoromethyl)-[1,2,4]triazolo[1,5-a]pyridin-5-yl)amino)-1-(3-fluoro-4-(trifluoromethoxy)phenyl)-2-methylpropan-2-ol]"
3,616 nM,"CN(C)c1cc(N[C@@H](c2ccc(C(F)(F)F)c(F)c2)C(C)(C)C)n2ncnc2n1 [Example 242, (R)-N^7-(1-(3-Fluoro-4-(trifluoromethyl)phenyl)-2,2-dimethylpropy1)-N^5,N^5-dimethyl-[1,2,4]triazolo [1,5-a]pyrimidine-5,7-diamine]"
4,9.9 nM,"Cc1cc(N[C@@H](c2ccc(C3CC3)cc2F)C(C)C)n2ncnc2n1 [Example 25, N-[(1R)-1-(4-Cyclopropyl-2-fluorophenyl)-2-methylpropyl]-5-methyl[1,2,4]triazolo[1,5-a] pyrimidin-7-amine]"
5,101 nM,"Cc1cc(NC2(c3ccc(C(F)(F)F)c(F)c3)CC2)n2ncnc2c1 [Example 263, N-(1-(3-Fluoro-4-(trifluoromethyl)phenyl)cyclopropyl)-7-methyl-[1,2,4]triazolo[1,5-a]pyridin-5-amine]"
6,138 nM,"Cc1cc(N[C@H](C)c2ccc(OC(F)(F)F)c(Cl)c2)n2ncnc2n1 [Example 9, N-{(1R)-1-[3-Chloro-4-(trifluoromethoxy)phenyl]ethyl}-5-methyl[1,2,4]triazolo[1,5-a] pyrimidin-7-amine]"
7,99 nM,"Cc1cc(NC(C)(C)c2ccc(C(F)(F)F)cc2)n2ncnc2n1 [Example 53, 5-Methyl-N-{1-methyl-1-[4-(trifluoromethyl)phenyl]ethyl} [1,2,4]triazolo[1,5-a]pyrimidin-7-amine]"
8,80 nM,"Cc1cc(NC2(c3ccc(C(F)(F)F)c(F)c3)CC2)n2nc(CF)nc2n1 [Example 197, N-(1-(3-Fluoro-4-(trifluoromethyl)phenyl)cyclopropyl)-2-(fluoromethyl)-5-methyl-[1,2,4]triazolo [1,5-a]pyrimidin-7-amine]"
9,82 nM,"Cc1cc(N[C@@H](c2ccc(C(F)(F)F)cc2)C(C)(C)O)n2ncnc2c1 [Example 265, (1S)-2-Methyl-1-[(7-methyl[1,2,4]triazolo[1,5-a]pyridin-5-yl)amino]-1-[4-(trifluoromethyl)phenyl]propan-2-ol]"
10,~2340 nM,"CC(C)(C)c1cc(NC(c2ccc(C(F)(F)F)cc2)C(C)(C)O)n2ncnc2n1 (stereo in doubt) [Example 158, (1S)-1-[(5-tert-Butyl[1,2,4]triazolo[1,5-a]pyrimidin-7-yl)amino]-2-methyl-1-[4-(trifluoromethyl)phenyl]propan-2-ol]"
11,> 2960 nM,"Cc1cc(NC(c2ccc(S(F)(F)(F)(F)F)cc2)C(C)(C)O)n2ncnc2n1 (single isomer, unassigned) [Example 116, (1S or R)-2-Methyl-1-[(5-methyl[1,2,4]triazolo[1,5-a]pyrimidin-7-yl)amino]-1-[4-(pentafluoro-λ^6-sulfanyl)phenyl] propan-2-ol]"
12,15 nM,"Cc1cc(N[C@@H](c2ccc(C(F)(F)F)cc2F)C(C)(C)C)n2ncnc2n1 [Example 34, N-{(1R)-1-[2-Fluoro-4-(trifluoromethyl)phenyl]-2,2-dimethylpropyl}-5-methyl[1,2,4]triazolo[1,5-a] pyrimidin-7-amine]"
13,> 2960 nM,"CC(C)(O)C(Nc1cc(C(F)(F)F)nc2ncnn12)c1ccc(C(F)(F)F)cc1Cl (single isomer, unassigned) [Example 159, (1S or R)-1-[2-Chloro-4-(trifluoromethyl)phenyl]-2-methyl-1-{[5-(trifluoromethyl)[1,2,4]triazolo[1,5-a]pyrimidin-7-yl]amino}propan-2-ol]"
14,97 nM,"CC(C)(O)C(Nc1cc(C2CC2)nc2ncnn12)c1ccc(OC(F)(F)F)cc1F (single isomer, unassigned) [Example 143, (1R or S)-1-[(5- Cyclopropyl [1,2,4]triazolo [1,5-a]pyrimidin-7-yl)amino)-1-[2-fluoro-4-(trifluoro-methoxy)phenyl]-2-methylpropan-2-ol]"
15,256 nM,"COc1cc(N[C@@H](c2ccc(C(F)(F)F)c(F)c2)C(C)(C)C)n2ncnc2n1 [Example 233, (R)—N-(1-(3-Fluoro-4-(trifluoromethyl)phenyl)-2,2-dimethylpropyl)-5-methoxy-[1,2,4]triazolo[1,5-a]pyrimidin-7-amine]"
16,~2110 nM,"CCC(O)(CC)C(Nc1cc(C(F)(F)F)nc2ncnn12)c1ccc(C(F)(F)F)c(F)c1 (single isomer, unassigned) [Example 220, (S)- or (R)-3-((3-Fluoro-4-(trifluoromethyl)phenyl)(5-(trifluoromethyl)-[1,2,4]triazolo [1,5-a]pyrimidin-7-ylamino)methyl) pentan-3-ol]"
